What was measured:
Assay in all cases: relative viability (nuclei count vs DMSO), 5 days (fraction); higher = more cells survive
[1] = compound: Cc1ccc2nc(NCCN)c3ncc(C)n3c2c1 + Nc1nc2[nH]cc(CCc3ccc(C(=O)N[C@@H](CCC(=O)O)C(=O)O)cc3)c2c(=O)[nH]1 [Pemetrexed] (partner 0.2 µM)
How it was run: (§1)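 Relative viability equals treated-well nuclei counts divided by vehicle-well nuclei counts. Counts came from 4× images of lung cancer cell lines grown in 1536-well plates for 5 days after pin-tool dosing on the day after seeding. Dosing used one drug alone or a fixed anchor-drug dose plus five library-drug doses (not always all listed) in √10 steps, and values are medians of duplicate plates.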

Salubrinal + OSI-027 = compound: O=C(/C=C/c1ccccc1)NC(NC(=S)Nc1cccc2cccnc12)C(Cl)(Cl)Cl [Salubrinal] + COc1cccc2cc(-c3nc([C@H]4CC[C@H](C(=O)O)CC4)n4ncnc(N)c34)[nH]c12 [OSI-027] (partner 0.5 µM)
How it was run: as §1

Salubrinal + Decitabine = compound: O=C(/C=C/c1ccccc1)NC(NC(=S)Nc1cccc2cccnc12)C(Cl)(Cl)Cl [Salubrinal] + Nc1ncn([C@H]2C[C@H](O)[C@@H](CO)O2)c(=O)n1 [Decitabine] (partner 2 µM)
How it was run: as §1

Salubrinal + Olaparib = compound: O=C(/C=C/c1ccccc1)NC(NC(=S)Nc1cccc2cccnc12)C(Cl)(Cl)Cl [Salubrinal] + O=C(c1cc(Cc2n[nH]c(=O)c3ccccc23)ccc1F)N1CCN(C(=O)C2CC2)CC1 [Olaparib] (partner 8 µM)
How it was run: as §1

Cell Line	relative viability ([1]; first compound 0.04 µM)	relative viability ([1]; first compound 0.1265 µM)	relative viability ([1]; first compound 0.4 µM)	relative viability ([1]; first compound 1.265 µM)	relative viability ([1]; first compound 4 µM)	relative viability (Salubrinal + OSI-027; first compound 0.08 µM)	relative viability (Salubrinal + OSI-027; first compound 0.253 µM)	relative viability (Salubrinal + OSI-027; first compound 0.8 µM)	relative viability (Salubrinal + OSI-027; first compound 2.53 µM)	relative viability (Salubrinal + OSI-027; first compound 8 µM)	relative viability (Salubrinal + Decitabine; first compound 0.08 µM)	relative viability (Salubrinal + Decitabine; first compound 0.253 µM)	relative viability (Salubrinal + Decitabine; first compound 0.8 µM)	relative viability (Salubrinal + Decitabine; first compound 2.53 µM)	relative viability (Salubrinal + Decitabine; first compound 8 µM)	relative viability (Salubrinal + Olaparib; first compound 0.08 µM)	relative viability (Salubrinal + Olaparib; first compound 0.253 µM)	relative viability (Salubrinal + Olaparib; first compound 0.8 µM)	relative viability (Salubrinal + Olaparib; first compound 2.53 µM)	relative viability (Salubrinal + Olaparib; first compound 8 µM)
NCI-H1395	0.881	0.995	0.855	0.697	0.56	0.705	0.675	0.682	0.605	0.624	0.792	0.686	0.707	0.67	0.692	0.445	0.448	0.411	0.466	0.437
LU99A	0.165	0.209	0.208	0.188	0.209	0.241	0.29	0.306	0.294	0.265	1.05	0.844	0.938	0.951	0.757	0.286	0.29	0.265	0.24	0.222
NCI-H1355	1.05	1.16	0.987	1.03	0.971	0.409	0.341	0.505	0.4	0.398	0.352	0.394	0.359	0.36	0.35	0.775	0.903	0.75	0.766	0.643
HCC-78	0.935	0.791	0.904	0.839	0.922	0.363	0.364	0.435	0.362	0.361	0.735	0.661	0.816	0.606	0.624	1	0.964	1	0.788	0.9
NCI-H1563	0.861	0.78	0.877	0.718	0.705	0.784	0.751	0.74	0.741	0.695										
HCC-15	0.233	0.203	0.223	0.252	0.236	0.722	0.665	0.824	0.666	0.644	0.723	0.555	0.773	0.762	0.61	0.766	0.711	0.784	0.702	0.68
EKVX	0.394	0.404	0.387	0.36	0.313	0.701	0.641	0.657	0.454	0.673	0.367	0.366	0.482	0.286	0.331	0.986	0.816	0.884	0.852	0.815
NCI-H2087	0.725	0.637	0.599	0.711	0.575	0.517	0.481	0.626	0.515	0.563	0.448	0.266	0.295	0.277	0.257	0.476	0.493	0.784	0.508	0.584
LK-2	0.252	0.297			0.191	0.185	0.194	0.258	0.212	0.214	0.269	0.306	0.399	0.385	0.266	0.873	0.659	0.877	0.773	0.694

From the supplement of paper PMC10307832
